This note sets out measurements from US20080153853A1, “USE OF MTKI 1 FOR TREATING OR PREVENTING BRAIN CANCER” (priority 2006, published 2008).

Data set [1] concerns A431 vulval carcinoma cells (s.c. tumor). In words: Subcutaneous injection of A431 cells in rats: s.c. tumor growth. The note with it: for Effect on subcutaneous A431 tumor growth (median s.c. tumor volumes, FIG. 1): MTKI 1 p.o. at all doses tested (50, 75, 100 mpk), BCNU i.v. day 4 and day 18; for Treatment versus Control (taking control as 100%), median s.c. A431 tumor volume: day 18, 24 hr after last treatment. Format: in vivo, rat. The protocol:
A431 (ATCC, Rockville, Md. USA) vulval carcinoma cells were stereo-tactically injected into athymic nude rats and mice. Tumor growth delay was followed by using animal survival as readout in the rat study or using MRI imaging in the case of the mouse study. Subcutaneous Injection of Cells in Rats The same day of the stereotaxic injection, rats were injected subcutaneously with A431 cells at D0. The tumor was obtained in rats by subcutaneous (SC) injection of 1×10^7 A431 cells in RPMI medium (200 μl) in their right flank. For subcutaneous injection of tumor cells, rats were anesthetised by inhalation of Isoflurane Forene (Minerve, Bondoufle, France). MTKI 1 (Compound 1 in the figures hereinafter) was dissolved in a solution of 20% Hydroxypropyl-β-cyclodextrine (20% β-HP-Cyclodextrin, pH 4.0) and given by oral gavage, daily for a period of fourteen days starting four days post inoculation of the cells, i.e. from day 4-17. Vehicle treated animals only received the β-HP-Cyclodextrin solution. The reference compound BCNU (Carmustin) was dosed intravenously on day 4 and day 18.

The nature of data set [2]: Clinical signs of toxicity (body weight loss, behavioral changes) in treated tumor-bearing rats. The conditions noted are these: high dose 15 mpk i.v. day 4 and day 18. The protocol: (§1) MTKI 1 (Compound 1 in the figures hereinafter) was dissolved in a solution of 20% Hydroxypropyl-β-cyclodextrine (20% β-HP-Cyclodextrin, pH 4.0) and given by oral gavage, daily for a period of fourteen days starting four days post inoculation of the cells, i.e. from day 4-17. Vehicle treated animals only received the β-HP-Cyclodextrin solution.
(§2) The reference compound BCNU (Carmustin) was dosed intravenously on day 4 and day 18.

The subject of data set [3] is A431 vulval carcinoma cells (intracranial tumor). Briefly: Stereotaxic injection of A431 cells in the brain of rats: animal survival. The class given is in vivo, rat. The conditions noted are these: rats with intracranial and s.c. A431 tumors, vehicle 49.
From the text: A431 (ATCC, Rockville, Md. USA) vulval carcinoma cells were stereo-tactically injected into athymic nude rats and mice. Tumor growth delay was followed by using animal survival as readout in the rat study or using MRI imaging in the case of the mouse study.
Stereotaxic Injection of Cells in the Brain of Rats
Forty (40) rats (Wistar, BDIX or Sprague Dawley) in part I and 40 nude rats were sterotaxically injected with cells at D0. For stereotaxic injection of tumor cells, rats were anesthetised by an intramuscular injection of a Ketamine (Ketamine500®, Ref 043KET204, Centravet, France) and Xylazine (Rompun®, Ref 002ROM001, Centravet, France) mixture (2/1, v/v, 70 and 15 mg/kg, respectively). 1×10^5 A431 Cells were stereotaxically injected using 4 independant stereotaxic apparatus (Kopf Instrument, Germany and Stoelting Company, USA) in the right frontal lobe with 1×10^5 tumor cells re-suspended in 5 μl of RPMI medium. Five μl of the cell suspension was injected according to SOP No TEC-083/001 at 0.5 μl/min. After cells injection, rats were observed during 1 hour.
as §1, §2

For the molecule `O=NN(CCCl)C(=O)NCCCl` [BCNU, reference compound], in data set [1], the “Effect on subcutaneous A431 tumor growth (median s.c. tumor volumes, FIG. 1)” value is “no effect”. The “Clinical signs of toxicity, i.e. body weight loss” value in data set [2] is “may have induced some mild toxicity”.

As for `COc1cc2ncnc3c2cc1OCCCCCN(C)Cc1ccc(Br)cc1N3` [MTKI 1, 4,6-ethanediylidenepyrimido[4,5-b][6,1,12]benzoxadiazacyclo-pentadecine, 17-bromo-8,9,10,11,12,13,14,19-octahydro-20-methoxy-13-methyl], the “Treatment versus Control (taking control as 100%), median s.c. A431 tumor volume” value turned out to be 5.37% in data set [1] (50 mpk p.o. QDx14 (day 4-17)), 4.29% in data set [1] (75 mpk p.o. QDx14 (day 4-17)) and 3.17% in data set [1] (100 mpk p.o. QDx14 (day 4-17)). Moreover, the “Effect on subcutaneous A431 tumor growth (median s.c. tumor volumes, FIG. 1)” value in data set [1] is “clearly inhibited”. For the same molecule, the “Survival times (50%)” value in data set [3] (50 mpk p.o. daily day 4-17) was determined as 61 days; in data set [3] (75 mpk p.o. daily day 4-17), 83 days; in data set [3] (100 mpk p.o. daily day 4-17) it was 88 days.
